According to patent publication EP4722203A1, “3,4-DIHYDROPHTHALAZIN-1(2H)-ONE DERIVATIVE, AND PREPARATION METHOD THEREFOR AND USE THEREOF” (Academy of Military Medical Sciences, priority 2023, dated 2024):

Tested on: human multiple myeloma NCI-H929 xenograft tumors
Assay: In vivo activity of combination therapy with bortezomib or tazemetostat against NCI-H929 transplanted tumor
Design: species or system NOD/SCID mice
Details: I-8 3 mg/kg QD
Experimental: In this example, the human multiple myeloma NCI-H929 cell line was selected as the cell model to determine the inhibitory effects of compounds, bortezomib (Bort), and tazemetostat (Taze), as single drugs and in combination, on the growth of NOD/SCID mouse transplanted tumors of NCI-H929 tumor cells. The evaluation methods and results are described below.
Human multiple myeloma NCI-H929 cells were routinely cultured in RPMI1640 containing 10% fetal bovine serum at 37°C in a 5% CO2 incubator. After three passages in vitro, when the cells reached over 80% confluence and the required confluence rate, the cells were digested and harvested. After washing with PBS, the cells were counted and the cell concentration was adjusted to approximately 5 × 10^7 cells/mL. The cells were then placed in 4 mL centrifuge tubes on ice for later use.
Female NOD/SCID mice aged 4-5 weeks were selected and subcutaneously inoculated with NCI-H929 cells ectopically. The mice were held in a lateral position, the forelimb axilla was disinfected with 75% alcohol, and 100 µL of the cell suspension was injected subcutaneously into the axilla using a 1 mL syringe ([…]/100 µL).
After the tumors grew to 90-150 mm^3, the animals were randomly divided into groups, 8 mice in each group, and administered according to different administration methods as follows: • Model control group: Administered with the same volume of Vehicle (DMSO: 0.5% sodium carboxymethyl cellulose: distilled water = 1:1:8) daily by gavage; • Test group 1: administered with I-8 solution at 3 mg/kg (mouse body weight) daily by gavage; • Test group 2: administered with bortezomib (Bort) solution at 1 mg/kg (mouse body weight) twice weekly by gavage; • Test group 3: administered with tazemetostat solution at 100 mg/kg (mouse body weight) daily by gavage; • Test group 4: administered with I-8 at 3 mg/kg (mouse body weight) daily by gavage and bortezomib (Bort) solution at 1 mg/kg (mouse body weight) twice weekly by gavage; • Test group 5: administered with I-8 at 3 mg/kg (mouse body weight) daily by gavage and tazemetostat (Taze) solution at 100 mg/kg (mouse body weight) daily by gavage;
The route of administration was oral gavage, and the administration frequency was once daily, for 10 consecutive days. The first day of administration was defined as Day 1 of the experiment. Tumor volume changes in mice were measured and recorded every two days. Tumor volume was measured using a vernier caliper, in which the major axis (a) and minor axis (b) of the tumor were measured, and the tumor volume was calculated as tumor volume V (mm^3) = a x b^2/2. After the experiment, the mice were dissected and the tumor weight was measured. The data were entered and statistically analyzed using GraphPad Prism 6 software. The data are expressed as mean ± SEM (Standard Error of Mean), and one-way ANOVA was used. P ≤ 0.05 was considered statistically significant.

## CN1Cc2c(NCc3ccc(CN4CCN(c5ccc(C#N)c(F)c5)CC4)cc3)cccc2C(=O)N1C1CCC(=O)NC1=O (stereo not shown) [I-8]
Day 10, Bort 1 mg/kg BIW, Taze 100 mg/kg QD, combinations given as + Bort 3 mg/kg BIW / + Taze 3 mg/kg QD
  Average volume (mm^3) (Day 10): 498.6 mm^3
Bort 1 mg/kg BIW, Taze 100 mg/kg QD, combinations given as + Bort 3 mg/kg BIW / + Taze 3 mg/kg QD
  Tumor inhibition rate TGI (%): 77.24%
Bortezomib 1 mg/kg BIW, tazemetostat 100 mg/kg QD, alone or combined
  growth of NCI-H929 transplanted tumors (in words): effectively inhibits the growth
baseline, Bort 1 mg/kg BIW, Taze 100 mg/kg QD, combinations given as + Bort 3 mg/kg BIW / + Taze 3 mg/kg QD
  Initial volume (mm^3): 120.7 mm^3
